Source: US12180187B2, “1-phenyl-5-azinylpyrazolyl-3-oxyalkyl acids and their use for controlling unwanted plant growth” (BAYER AKTIENGESELLSCHAFT, priority 2019, dated 2024)

Assays:
PHBPU = experiment: Pre-emergence action at 320 g/ha against PHBPU; type: in vivo; conditions: visual scoring after about 3 weeks vs untreated controls
Text: b) Seeds of monocotyledonous and dicotyledonous weed plants and crop plants are placed in plastic or organic planting pots and covered with soil. The compounds of the invention, formulated in the form of wettable powders (WP) or as emulsion concentrates (EC), are then applied onto the surface of the covering soil as aqueous suspension or emulsion with addition of 0.5% additive at a water application rate of 600 l/ha (converted). After the treatment, the pots are placed in a greenhouse and kept under good growth conditions for the trial plants. After about 3 weeks, the effect of the preparations is scored visually in comparison with untreated controls as percentages. For example, 100% activity=the plants have died, 0% activity=like control plants. Tables 13 to 26 below show the effects of selected compounds of the general formula (I) on various harmful plants and at an application rate corresponding to 320 g/ha, which were obtained by the experimental procedure mentioned above.

POLCO = experiment: Pre-emergence action at 320 g/ha against POLCO; type: in vivo, Fallopia convolvulus (Polygonum convolvulus); conditions: visual scoring after about 3 weeks vs untreated controls
Outline: (§1)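 Weed seeds sown in pots and covered with soil; compounds formulated as WP or EC were sprayed onto the soil surface as aqueous suspension or emulsion with 0.5% additive at 600 l/ha water. Pots kept in greenhouse; activity scored visually after about 3 weeks versus untreated controls (100% = plants dead, 0% = like control).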

VERPE [1] = experiment: Pre-emergence action at 320 g/ha against VERPE; type: in vivo, Veronica persica; conditions: visual scoring after about 3 weeks vs untreated controls
Outline: as §1

AVEFA = experiment: Pre-emergence action at 320 g/ha against AVEFA; type: in vivo; conditions: visual scoring after about 3 weeks vs untreated controls
Outline: as §1

DIGSA [2] = experiment: Pre-emergence action at 320 g/ha against DIGSA; type: in vivo, Digitaria sanguinalis; conditions: visual scoring after about 3 weeks vs untreated controls
Outline: as §1

POAAN [3] = experiment: Post-emergence action against POAAN, 1.28 kg/ha; type: in vivo, Poa annua; conditions: dosage 1280 g/ha, visual rating about 3 weeks after treatment vs untreated controls
Outline: (§2)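 Greenhouse pot test, sandy loam; weeds sprayed post-emergence at one-leaf stage (2–3 weeks after sowing) with WP or EC formulation plus 0.5% additive, 600 l/ha water. Visual rating after about 3 weeks versus untreated controls, 100% = plants dead, 0% = like control.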

SETVI [4] = experiment: Pre-emergence action against SETVI, 1280 g/ha; type: in vivo, Setaria viridis; conditions: visual scoring after about 3 weeks vs untreated controls, 100% = plants have died, 0% = like control plants
Outline: (§3)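 Percent herbicidal effect, judged by eye relative to untreated pots around 3 weeks after soil-surface treatment. Application: formulated compound in water, 600 L/ha, 0.5% additive, on soil over sown seeds; greenhouse.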

LOLRI [5] = experiment: Post-emergence action against LOLRI, 1.28 kg/ha; type: in vivo, Lolium rigidum; conditions: dosage 1280 g/ha, visual rating about 3 weeks after treatment vs untreated controls
Outline: as §2

LOLRI [6] = experiment: Pre-emergence action against LOLRI, 1280 g/ha; type: in vivo, Lolium rigidum; conditions: visual scoring after about 3 weeks vs untreated controls, 100% = plants have died, 0% = like control plants
Outline: as §3

ECHGC = experiment: Pre-emergence action at 320 g/ha against ECHGC; type: in vivo, Echinochloa crus-galli; conditions: visual scoring after about 3 weeks vs untreated controls
Outline: as §1

ALOMY [7] = experiment: Pre-emergence action against ALOMY, 1280 g/ha; type: in vivo, Alopecurus myosuroides; conditions: visual scoring after about 3 weeks vs untreated controls, 100% = plants have died, 0% = like control plants
Outline: as §3

STEME [8] = experiment: Post-emergence action against STEME, 1.28 kg/ha; type: in vivo, Stellaria media; conditions: dosage 1280 g/ha, visual rating about 3 weeks after treatment vs untreated controls (100% = plants died)
Outline: as §2

SETVI [9] = experiment: Pre-emergence action at 320 g/ha against SETVI; type: in vivo, Setaria viridis; conditions: visual scoring after about 3 weeks vs untreated controls
Outline: as §1

ALOMY [10] = experiment: Pre-emergence action at 320 g/ha against ALOMY; type: in vivo, Alopecurus myosuroides; conditions: scored visually after about 3 weeks vs untreated controls (100% = plants have died)
Outline: as §1

MATIN [11] = experiment: Post-emergence action against MATIN, 1.28 kg/ha; type: in vivo, Tripleurospermum inodorum (Matricaria inodora); conditions: dosage 1280 g/ha, visual rating about 3 weeks after treatment vs untreated controls (100% = plants died)
Outline: as §2

ECHCG [12] = experiment: Post-emergence action against ECHCG, 1.28 kg/ha; type: in vivo, Echinochloa crus-galli; conditions: dosage 1280 g/ha, visual rating about 3 weeks after treatment vs untreated controls
Outline: as §2

STEME [13] = experiment: Pre-emergence action against STEME, 1280 g/ha; type: in vivo, Stellaria media; conditions: scored visually after about 3 weeks vs untreated controls (100% = plants have died)
Outline: as §3

MATIN [14] = experiment: Pre-emergence action at 320 g/ha against MATIN; type: in vivo, Tripleurospermum inodorum (Matricaria inodora); conditions: visual scoring after about 3 weeks vs untreated controls
Outline: as §1

VIOTR = experiment: Pre-emergence action at 320 g/ha against VIOTR; type: in vivo, Viola tricolor; conditions: dosage 320 g/ha
Outline: as §1

AMARE [15] = experiment: Post-emergence action against AMARE, 1.28 kg/ha; type: in vivo, Amaranthus retroflexus; conditions: dosage 1280 g/ha, visual rating about 3 weeks after treatment vs untreated controls (100% = plants died)
Outline: as §2

ABUTH [16] = experiment: Post-emergence action against ABUTH, 1.28 kg/ha; type: in vivo, Abutilon theophrasti; conditions: dosage 1280 g/ha, visual rating about 3 weeks after treatment vs untreated controls (100% = plants died)
Outline: as §2

DIGSA [17] = experiment: Pre-emergence action against DIGSA, 1280 g/ha; type: in vivo, Digitaria sanguinalis; conditions: visual scoring after about 3 weeks vs untreated controls, 100% = plants have died, 0% = like control plants
Outline: as §3

KCHSC [18] = experiment: Pre-emergence action against KCHSC, 1280 g/ha; type: in vivo, Bassia scoparia; conditions: scored visually after about 3 weeks vs untreated controls (100% = plants have died)
Outline: as §3

DIGSA [19] = experiment: Post-emergence action against DIGSA, 1.28 kg/ha; type: in vivo, Digitaria sanguinalis; conditions: dosage 1280 g/ha, visual rating about 3 weeks after treatment vs untreated controls
Outline: as §2

AMARE [20] = experiment: Pre-emergence action at 320 g/ha against AMARE; type: in vivo, Amaranthus retroflexus; conditions: visual scoring after about 3 weeks vs untreated controls
Outline: as §1

VERPE [21] = experiment: Post-emergence action against VERPE, 1.28 kg/ha; type: in vivo, Veronica persica; conditions: dosage 1280 g/ha, visual rating about 3 weeks after treatment vs untreated controls (100% = plants died)
Outline: as §2

ABUTH [22] = experiment: Pre-emergence action against ABUTH, 1280 g/ha; type: in vivo, Abutilon theophrasti; conditions: scored visually after about 3 weeks vs untreated controls (100% = plants have died)
Outline: as §3

LOLRI [23] = experiment: Pre-emergence action at 320 g/ha against LOLRI; type: in vivo, Lolium rigidum; conditions: visual scoring after about 3 weeks vs untreated controls
Outline: as §1

AMARE [24] = experiment: Pre-emergence action against AMARE, 1280 g/ha; type: in vivo, Amaranthus retroflexus; conditions: scored visually after about 3 weeks vs untreated controls (100% = plants have died)
Outline: as §3

POAAN [25] = experiment: Pre-emergence action against POAAN, 1280 g/ha; type: in vivo, Poa annua; conditions: visual scoring after about 3 weeks vs untreated controls, 100% = plants have died, 0% = like control plants
Outline: as §3

MATIN [26] = experiment: Pre-emergence action against MATIN, 1280 g/ha; type: in vivo, Tripleurospermum inodorum (Matricaria inodora); conditions: scored visually after about 3 weeks vs untreated controls (100% = plants have died)
Outline: as §3

SETVI [27] = experiment: Post-emergence action against SETVI, 1.28 kg/ha; type: in vivo, Setaria viridis; conditions: dosage 1280 g/ha, visual rating about 3 weeks after treatment vs untreated controls
Outline: as §2

ALOMY [28] = experiment: Post-emergence action against ALOMY, 1.28 kg/ha; type: in vivo, Alopecurus myosuroides; conditions: dosage 1280 g/ha, visual rating about 3 weeks after treatment vs untreated controls
Outline: as §2

KCHSC [29] = experiment: Post-emergence action against KCHSC, 1.28 kg/ha; type: in vivo, Bassia scoparia; conditions: dosage 1280 g/ha, visual rating about 3 weeks after treatment vs untreated controls (100% = plants died)
Outline: as §2

VERPE [30] = experiment: Pre-emergence action against VERPE, 1280 g/ha; type: in vivo, Veronica persica; conditions: scored visually after about 3 weeks vs untreated controls (100% = plants have died)
Outline: as §3

ECHCG [31] = experiment: Pre-emergence action against ECHCG, 1280 g/ha; type: in vivo, Echinochloa crus-galli; conditions: visual scoring after about 3 weeks vs untreated controls, 100% = plants have died, 0% = like control plants
Outline: as §3

## CSCCOC(=O)COc1nn(-c2ccccc2F)c(-c2ccc(F)nc2)c1Br [VII-124]
PHBPU
  Pre-emergence action against PHBPU in %: 90%
POLCO
  Pre-emergence action against POLCO in %: 100%
VERPE [1]
  Pre-emergence action against VERPE in %: 100%
AVEFA
  Pre-emergence action against AVEFA in %: 90%
DIGSA [2]
  Pre-emergence action against DIGSA in %: 100%
POAAN [3]
  Post-emergence action against POAAN: 100%
SETVI [4]
  Pre-emergence action against SETVI: 100%
LOLRI [5]
  Post-emergence action against LOLRI: 100%
LOLRI [6]
  Pre-emergence action against LOLRI: 100%
ECHGC
  Pre-emergence action against ECHGC in %: 100%
ALOMY [7]
  Pre-emergence action against ALOMY: 100%
STEME [8]
  Post-emergence action against STEME: 100%
SETVI [9]
  Pre-emergence action against SETVI in %: 100%
ALOMY [10]
  Pre-emergence action at 320 g/ha against ALOMY in %: 100%
MATIN [11]
  Post-emergence action against MATIN: 100%
ECHCG [12]
  Post-emergence action against ECHCG: 100%
STEME [13]
  Pre-emergence action against STEME: 100%
MATIN [14]
  Pre-emergence action against MATIN in %: 100%
VIOTR
  Pre-emergence action against VIOTR in %: 100%
AMARE [15]
  Post-emergence action against AMARE: 90%
ABUTH [16]
  Post-emergence action against ABUTH: 90%
DIGSA [17]
  Pre-emergence action against DIGSA: 100%
KCHSC [18]
  Pre-emergence action against KCHSC: 90%
DIGSA [19]
  Post-emergence action against DIGSA: 100%
AMARE [20]
  Pre-emergence action against AMARE in %: 100%
VERPE [21]
  Post-emergence action against VERPE: 100%
ABUTH [22]
  Pre-emergence action against ABUTH: 90%
LOLRI [23]
  Pre-emergence action against LOLRI in %: 100%
AMARE [24]
  Pre-emergence action against AMARE: 100%
POAAN [25]
  Pre-emergence action against POAAN: 100%
MATIN [26]
  Pre-emergence action against MATIN: 100%
SETVI [27]
  Post-emergence action against SETVI: 90%
ALOMY [28]
  Post-emergence action against ALOMY: 100%
KCHSC [29]
  Post-emergence action against KCHSC: 90%
VERPE [30]
  Pre-emergence action against VERPE: 100%
ECHCG [31]
  Pre-emergence action against ECHCG: 100%
